Assay results as given in patent US20090131331A1 (DSM IP ASSETS B.V., priority 2005, published 2009).
Values belong to the substance of their own block, whether it stands above or below them.

Experiments:
[1] = tested on: ACE (enzyme obtained from Sigma); assay: ACE in phosphate buffered saline (PBS) pH 7.4 with a chloride concentration of 260 mM; settings: 50° C., up to 60 minutes
ACE [2] = assay: modified Matsui ACE inhibition assay; type: biochemical; settings: as stated in description text; read-out: IC50 value in the Modified Matsui test
Protocol: To determine the ACE inhibition activity of MAP and ITP, the chemically synthesised tripeptides were assayed according to the method of Matsui et al. (Matsui, T. et al. (1992) Biosci. Biotech. Biochem. 56: 517-518) with some minor modifications.
Each one of the four samples contained 75 μl 3 mM hippuryl histidine leucine (Hip-His-Leu, Sigma) dissolved in a 250 mM borate solution containing 200 mM NaCl, pH 8.3. ACE was obtained from Sigma. The mixtures were incubated at 37° C. and stopped after 30 min by adding 125 μl 0.5 M HCl. […] After incubation for 20 min. at 37° C., 4 ml 4 mM Na2SO3 in 0.2 M NaH2PO4 was added and the light absorbance at 416 nm was measured with UV/Vis spectrophotometer (Shimadzu UV-1601 with a CPS controller, Netherlands).
The amount of ACE inhibition (ACEI) activity was calculated as a percentage of inhibition compared with the conversion rate of ACE in the absence of an inhibitor according to the following formula: […]
Control 1=Absorbance without ACE inhibitory component (=max. ACE activity) [AU]. Control 2=Absorbance without ACE inhibitory component and without ACE (background) [AU]. Sample1=Absorbance in the presence of ACE and the ACE inhibitory component [AU]. Sample 2=Absorbance in the presence of the ACE inhibitory component, but without ACE [AU]. […]

ACE [3] = target: ACE (Homo sapiens, UniProt P12821); settings: literature (Nakamura 1995; Aryoshi 1993); read-out: IC50 reported earlier as ACE inhibiting peptides; cited from earlier work
ACE [4] = assay: at-line ACE inhibition assay; type: biochemical
Protocol: For the at-line ACE inhibition assay 27 μl of a 33.4 mU ml^−1 ACE (enzyme obtained from Sigma) in phosphate buffered saline (PBS) pH 7.4 with a chloride concentration of 260 mM was added and the mixture was allowed to incubate for 5 minutes on a 96 well plate mixer at 700 RPM. After the incubation period 13 μl of a 0.35 mM hippuric acid-histidine leucine (HHL) solution in PBS buffer was added and mixed for 1 minute at 700 RPM. The mixture was allowed to react for 60 minutes at 50° C. in a GC-oven. After the reaction the plate was cooled in melting ice.
The 96 well plate was then analysed on a flash-HPLC-column. Of the reaction mixture of each well 30 μl was injected on a Chromlith Flash RP18e 25×4.6 mm HPLC column (Merck, Darmstadt, Germany) equipped with a 10×4.6 mm RP18e guard column from the same supplier. The isocratic mobile phase consisted of a 0.1% solution of TFA in water/acetonitrile 79/21. […] Hippuric acid (H) and HHL were monitored at 280 nm. The peak heights of H and HHL were measured and the ACE inhibition (ACEI) of each fraction was calculated according to the equation: […]
• DCw Degree of Cleavage by ACE of HHL to H and HL in water • DCa Degree of Cleavage of HHL to H and HL for the analyte The Degree of Cleavage was calculated by expressing the peak height of H as a fraction of the sum of the peak heights of H and HHL.

[5] = tested on: pepsin (Fluka order no. 77161); 8 times USP pancreatin (Sigma order no. P7545); assay: simulated human gastro-intestinal tract (GIT procedure): pepsin with falling pH, then pancreatin up to pH 7.1; settings: 37.5° C., up to t=125 min

ACE (Homo sapiens, UniProt P12821), sequence (P12821 30-1306, species assumed): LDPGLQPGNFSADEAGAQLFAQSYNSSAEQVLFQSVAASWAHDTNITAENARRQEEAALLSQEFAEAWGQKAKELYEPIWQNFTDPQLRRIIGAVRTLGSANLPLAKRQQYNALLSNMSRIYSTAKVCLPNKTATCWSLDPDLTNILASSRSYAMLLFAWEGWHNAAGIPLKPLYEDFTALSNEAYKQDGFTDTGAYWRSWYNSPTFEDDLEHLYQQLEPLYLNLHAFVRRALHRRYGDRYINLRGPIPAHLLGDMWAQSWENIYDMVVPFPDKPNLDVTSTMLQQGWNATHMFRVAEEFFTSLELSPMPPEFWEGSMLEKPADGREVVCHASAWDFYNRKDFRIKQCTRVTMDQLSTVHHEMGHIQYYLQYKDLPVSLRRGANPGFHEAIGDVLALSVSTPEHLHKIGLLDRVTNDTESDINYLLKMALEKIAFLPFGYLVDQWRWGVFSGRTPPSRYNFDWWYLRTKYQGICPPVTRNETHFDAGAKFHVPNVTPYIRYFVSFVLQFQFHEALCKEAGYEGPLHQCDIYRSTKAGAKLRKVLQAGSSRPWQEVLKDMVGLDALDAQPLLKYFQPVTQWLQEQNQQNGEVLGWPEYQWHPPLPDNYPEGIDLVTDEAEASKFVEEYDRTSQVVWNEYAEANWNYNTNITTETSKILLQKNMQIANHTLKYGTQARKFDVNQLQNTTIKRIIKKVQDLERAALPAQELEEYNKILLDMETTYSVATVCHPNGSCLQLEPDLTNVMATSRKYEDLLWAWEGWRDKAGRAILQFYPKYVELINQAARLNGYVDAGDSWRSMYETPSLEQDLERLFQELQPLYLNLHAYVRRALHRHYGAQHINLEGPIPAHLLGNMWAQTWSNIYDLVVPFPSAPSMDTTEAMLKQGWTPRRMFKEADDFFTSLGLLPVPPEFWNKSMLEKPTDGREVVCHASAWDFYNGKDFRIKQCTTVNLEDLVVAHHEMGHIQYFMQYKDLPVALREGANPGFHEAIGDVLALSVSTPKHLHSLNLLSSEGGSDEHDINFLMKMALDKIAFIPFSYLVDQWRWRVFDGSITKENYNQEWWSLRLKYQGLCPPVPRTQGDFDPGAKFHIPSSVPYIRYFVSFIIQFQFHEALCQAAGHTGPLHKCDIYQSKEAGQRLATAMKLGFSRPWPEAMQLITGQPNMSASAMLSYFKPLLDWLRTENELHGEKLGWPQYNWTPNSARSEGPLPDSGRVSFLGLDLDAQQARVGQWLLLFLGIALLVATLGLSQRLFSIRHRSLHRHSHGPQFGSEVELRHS

cleaved bond [1]: Hip-His
Substance: Hip-His-Leu

IC50 (ACE [2]): 2 µM
IC50 (ACE [4]): 7.1 µM
Substance: IPP: known ACE inhibiting tripeptide, kappa-casein f 108-110; chemically synthesized internal reference
IC50 (ACE [3]): 5 µM

Substance: LPP: known ACE inhibiting tripeptide, β-casein f151-153 (UniProt P02666 166-168, looked up, fragment)
IC50 (ACE [3]): 9.6 µM

Substance: Met-Ala-Pro
amount per gram powder before and after GIT [5]: 2851.4 μg g^−1 powder before, 3095.8 after GIT
